As a reminder, the IC50 is the concentration at which inhibition is half-maximal.

The target in one assay is GCN2 (Homo sapiens (Human), UniProt Q9P2K8). Description: TR-FRET biochemical assay for inhibition of GCN2.
GCN2, sequence (Q9P2K8 whole entry): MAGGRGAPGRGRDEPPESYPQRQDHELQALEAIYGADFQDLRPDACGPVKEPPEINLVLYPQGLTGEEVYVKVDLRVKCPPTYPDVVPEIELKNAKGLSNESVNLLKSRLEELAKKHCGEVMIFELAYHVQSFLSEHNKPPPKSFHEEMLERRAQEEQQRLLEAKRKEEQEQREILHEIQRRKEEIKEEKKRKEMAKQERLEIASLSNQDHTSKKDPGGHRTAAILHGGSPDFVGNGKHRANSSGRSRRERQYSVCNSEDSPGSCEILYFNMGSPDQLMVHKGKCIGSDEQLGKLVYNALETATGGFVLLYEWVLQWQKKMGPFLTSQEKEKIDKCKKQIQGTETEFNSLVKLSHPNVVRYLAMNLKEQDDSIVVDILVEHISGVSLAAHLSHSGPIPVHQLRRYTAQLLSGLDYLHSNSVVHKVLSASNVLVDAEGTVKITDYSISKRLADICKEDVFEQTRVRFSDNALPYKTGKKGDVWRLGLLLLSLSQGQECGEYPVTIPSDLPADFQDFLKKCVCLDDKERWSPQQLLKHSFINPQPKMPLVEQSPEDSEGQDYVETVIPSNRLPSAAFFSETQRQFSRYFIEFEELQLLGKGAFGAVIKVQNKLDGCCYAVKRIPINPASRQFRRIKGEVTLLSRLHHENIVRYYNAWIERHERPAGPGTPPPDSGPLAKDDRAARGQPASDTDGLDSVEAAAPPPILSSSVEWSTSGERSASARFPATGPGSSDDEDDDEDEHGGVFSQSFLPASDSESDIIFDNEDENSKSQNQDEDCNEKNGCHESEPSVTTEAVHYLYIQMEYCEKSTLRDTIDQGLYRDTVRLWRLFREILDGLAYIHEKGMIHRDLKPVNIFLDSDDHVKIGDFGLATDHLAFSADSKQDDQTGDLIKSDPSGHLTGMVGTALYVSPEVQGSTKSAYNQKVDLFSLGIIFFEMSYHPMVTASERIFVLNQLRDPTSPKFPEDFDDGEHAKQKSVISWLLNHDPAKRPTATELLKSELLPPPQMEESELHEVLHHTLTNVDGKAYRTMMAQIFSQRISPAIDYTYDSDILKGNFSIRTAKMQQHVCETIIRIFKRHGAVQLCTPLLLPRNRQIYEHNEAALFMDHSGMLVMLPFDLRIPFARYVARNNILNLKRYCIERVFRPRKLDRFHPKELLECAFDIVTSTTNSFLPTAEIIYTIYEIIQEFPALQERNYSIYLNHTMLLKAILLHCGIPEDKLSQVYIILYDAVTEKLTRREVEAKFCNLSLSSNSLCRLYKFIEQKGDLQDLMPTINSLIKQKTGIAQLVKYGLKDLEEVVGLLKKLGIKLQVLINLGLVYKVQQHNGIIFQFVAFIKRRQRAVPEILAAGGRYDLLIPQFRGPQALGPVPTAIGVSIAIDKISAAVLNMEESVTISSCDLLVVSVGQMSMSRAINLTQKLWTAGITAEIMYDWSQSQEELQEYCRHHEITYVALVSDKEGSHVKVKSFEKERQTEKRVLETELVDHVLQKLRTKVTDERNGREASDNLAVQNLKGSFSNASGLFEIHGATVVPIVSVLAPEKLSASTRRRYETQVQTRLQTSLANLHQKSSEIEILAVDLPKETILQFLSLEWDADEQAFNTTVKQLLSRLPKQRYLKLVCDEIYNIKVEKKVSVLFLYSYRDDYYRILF
Details: not given
(In TR-FRET formats the signal depends on donor and acceptor labels being close together.)
`CNC(=O)c1ncn2c1CC[C@H](c1c(F)ccc(NS(=O)(=O)c3cc(C#N)cnc3OC)c1F)C2` [Compound 68-1, (R)-6-(3-((5-cyano-2-methoxypyridine)-3-sulfonamido)-2,6-difluorophenyl)-N-methyl-5,6,7,8-tetrahydroimidazo[1,5-a]pyridine-1-carboxamide] yielded an IC50 of 50 to 500 nM.

With `CNC(=O)c1ncn2c1CC[C@@H](c1c(F)ccc(NS(=O)(=O)c3cc(C#N)cnc3OC)c1F)C2` [Compound 68-2, (S)-6-(3-((5-cyano-2-methoxypyridine)-3-sulfonamido)-2,6-difluorophenyl)-N-methyl-5,6,7,8-tetrahydroimidazo[1,5-a]pyridine-1-carboxamide], the IC50 fell in the range of 50 to 500 nM.

In turn, `COc1ncc(Cl)cc1S(=O)(=O)Nc1ccc(F)c([C@@H]2Cn3cnc(-c4ncc[nH]4)c3CN2C)c1F` [Compound 73-1, 5-chloro-N-[2,4-difluoro-3-[(6R)-1-(1H-imidazol-2-yl)-7-methyl-5H,6H,8H-imidazo[1,5-a]pyrazin-6-yl]phenyl]-2-methoxypyridine-3-sulfonamide] had an IC50 of 50 to 500 nM.

`COc1ncc(Cl)cc1S(=O)(=O)Nc1ccc(F)c([C@H]2Cn3cnc(-c4ncc[nH]4)c3CN2C)c1F` [Compound 73-2, 5-chloro-N-[2,4-difluoro-3-[(6S)-1-(1H-imidazol-2-yl)-7-methyl-5H,6H,8H-imidazo[1,5-a]pyrazin-6-yl]phenyl]-2-methoxypyridine-3-sulfonamide]: the IC50 lay within 50 to 500 nM.

Consider `COc1ncc(C#N)cc1S(=O)(=O)Nc1ccc(F)c([C@H]2CCc3c(-c4ncc[nH]4)ncn3C2)c1F` [Compound 82-1, 5-cyano-N-[2,4-difluoro-3-[(6R)-1-(1H-imidazol-2-yl)-5H,6H,7H,8H-imidazo[1,5-a]pyridin-6-yl]phenyl]-2-methoxypyridine-3-sulfonamide], for which the IC50 is 50 to 500 nM.

`COc1ncc(C#N)cc1S(=O)(=O)Nc1ccc(F)c([C@@H]2CCc3c(-c4ncc[nH]4)ncn3C2)c1F` [Compound 82-2, 5-cyano-N-[2,4-difluoro-3-[(6S)-1-(1H-imidazol-2-yl)-5H,6H,7H,8H-imidazo[1,5-a]pyridin-6-yl]phenyl]-2-methoxypyridine-3-sulfonamide] gave an IC50 of 50 to 500 nM.

Compound `CNC(=O)c1ncn2cc(-c3c(F)ccc(NS(=O)(=O)c4cc(F)cnc4OC)c3F)ncc12` [Compound 90, 6-[2,6-difluoro-3-(5-fluoro-2-methoxypyridine-3-sulfonamido)phenyl]-N-methylimidazo[1,5-a]pyrazine-1-carboxamide] registered an IC50 of 50 to 500 nM.

For the compound `CNC(=O)c1ncn2cc(-c3c(F)ccc(NS(=O)(=O)c4cc(F)cnc4C)c3F)ncc12` [Compound 91, 6-[2,6-difluoro-3-(5-fluoro-2-methylpyridine-3-sulfonamido)phenyl]-N-methylimidazo[1,5-a]pyrazine-1-carboxamide], the IC50 lay within 50 to 500 nM.

`CNC(=O)c1ncn2cc(-c3c(F)ccc(NS(=O)(=O)c4cc(C#N)cnc4OC)c3F)ncc12` [Compound 92, 6-[3-(5-cyano-2-methoxypyridine-3-sulfonamido)-2,6-difluorophenyl]-N-methylimidazo[1,5-a]pyrazine-1-carboxamide] showed an IC50 of 50 to 500 nM.

Staying with this assay, now noted: GCN2 2 nM, 100 nM GFP-eIF2a, 150 μM ATP, TR-FRET.
For `COc1ncc(C#N)cc1S(=O)(=O)Nc1ccc(F)c(-c2ccc3c(-c4nc5ccccc5[nH]4)ncn3c2)c1F` [Compound 66, N-[3-[1-(1H-1,3-benzodiazol-2-yl)imidazo[1,5-a]pyridin-6-yl]-2,4-difluorophenyl]-5-cyano-2-methoxypyridine-3-sulfonamide], the IC50 is under 50 nM.

Compound `COc1ncc(C#N)cc1S(=O)(=O)Nc1ccc(F)c(-c2cn3cnc(-c4ncc[nH]4)c3cn2)c1F` [Compound 69, 5-cyano-N-[2,4-difluoro-3-[1-(1H-imidazol-2-yl)imidazo[1,5-a]pyrazin-6-yl]phenyl]-2-methoxypyridine-3-sulfonamide] registered an IC50 of under 50 nM.

In turn, `COc1ncc(F)cc1S(=O)(=O)Nc1ccc(F)c(-c2ccc3c(-c4nnc[nH]4)ncn3c2)c1F` [Compound 70, N-[2,4-difluoro-3-[1-(4H-1,2,4-triazol-3-yl)imidazo[1,5-a]pyridin-6-yl]phenyl]-5-fluoro-2-methoxypyridine-3-sulfonamide] came in with an IC50 of under 50 nM.

Consider `COc1ncc(C#N)cc1S(=O)(=O)Nc1ccc(F)c(-c2ccc3c(-c4nnc[nH]4)ncn3c2)c1F` [Compound 71, 5-cyano-N-[2,4-difluoro-3-[1-(4H-1,2,4-triazol-3-yl)imidazo[1,5-a]pyridin-6-yl]phenyl]-2-methoxypyridine-3-sulfonamide], for which the IC50 was under 50 nM.

`Cc1ncc(F)cc1S(=O)(=O)Nc1ccc(F)c(-c2ccc3c(-c4nnc[nH]4)ncn3c2)c1F` [Compound 72, N-[2,4-difluoro-3-[1-(4H-1,2,4-triazol-3-yl)imidazo[1,5-a]pyridin-6-yl]phenyl]-5-fluoro-2-methylpyridine-3-sulfonamide] gave an IC50 of under 50 nM.

Compound `COc1ncc(F)cc1S(=O)(=O)Nc1ccc(F)c(-c2ccc3c(-n4cnnn4)ncn3c2)c1F` [Compound 74, N-[2,4-difluoro-3-[1-(1,2,3,4-tetrazol-1-yl)imidazo[1,5-a]pyridin-6-yl]phenyl]-5-fluoro-2-methoxypyridine-3-sulfonamide] displayed an IC50 of under 50 nM.

With `COc1ncc(C#N)cc1S(=O)(=O)Nc1ccc(F)c(-c2ccc3c(-n4cnnn4)ncn3c2)c1F` [Compound 75, 5-cyano-N-[2,4-difluoro-3-[1-(1,2,3,4-tetrazol-1-yl)imidazo[1,5-a]pyridin-6-yl]phenyl]-2-methoxypyridine-3-sulfonamide], the IC50 is under 50 nM.

`Cc1ncc(F)cc1S(=O)(=O)Nc1ccc(F)c(-c2ccc3c(-n4cnnn4)ncn3c2)c1F` [Compound 76, N-[2,4-difluoro-3-[1-(1,2,3,4-tetrazol-1-yl)imidazo[1,5-a]pyridin-6-yl]phenyl]-5-fluoro-2-methylpyridine-3-sulfonamide] yielded an IC50 of under 50 nM.

`Cc1ncc(Cl)cc1S(=O)(=O)Nc1ccc(F)c(-c2ccc3c(-n4cnnn4)ncn3c2)c1F` [Compound 77, 5-chloro-N-[2,4-difluoro-3-[1-(1,2,3,4-tetrazol-1-yl)imidazo[1,5-a]pyridin-6-yl]phenyl]-2-methylpyridine-3-sulfonamide] returned an IC50 of under 50 nM.

For `COc1ncc(F)cc1S(=O)(=O)Nc1ccc(F)c(-c2cn3cnc(-c4ncc[nH]4)c3cn2)c1F` [Compound 78, N-[2,4-difluoro-3-[1-(1H-imidazol-2-yl)imidazo[1,5-a]pyrazin-6-yl]phenyl]-5-fluoro-2-methoxypyridine-3-sulfonamide], the half-inhibitory concentration (IC50) was under 50 nM.

Regarding `COc1ncc(Cl)cc1S(=O)(=O)Nc1ccc(F)c([C@H]2CCc3c(-c4ncc[nH]4)ncn3C2)c1F` [Compound 79-1, 5-chloro-N-[2,4-difluoro-3-[(6R)-1-(1H-imidazol-2-yl)-5H,6H,7H,8H-imidazo[1,5-a]pyridin-6-yl]phenyl]-2-methoxypyridine-3-sulfonamide], the IC50 is under 50 nM.

For the compound `COc1ncc(Cl)cc1S(=O)(=O)Nc1ccc(F)c([C@@H]2CCc3c(-c4ncc[nH]4)ncn3C2)c1F` [Compound 79-2, 5-chloro-N-[2,4-difluoro-3-[(6S)-1-(1H-imidazol-2-yl)-5H,6H,7H,8H-imidazo[1,5-a]pyridin-6-yl]phenyl]-2-methoxypyridine-3-sulfonamide], the IC50 is under 50 nM.

`Cc1ncc(F)cc1S(=O)(=O)Nc1ccc(F)c([C@H]2CCc3c(-c4ncc[nH]4)ncn3C2)c1F` [Compound 80-1, N-[2,4-difluoro-3-[(6R)-1-(1H-imidazol-2-yl)-5H,6H,7H,8H-imidazo[1,5-a]pyridin-6-yl]phenyl]-5-fluoro-2-methylpyridine-3-sulfonamide] had an IC50 of under 50 nM.

On to `Cc1ncc(F)cc1S(=O)(=O)Nc1ccc(F)c([C@@H]2CCc3c(-c4ncc[nH]4)ncn3C2)c1F` [Compound 80-2, N-[2,4-difluoro-3-[(6S)-1-(1H-imidazol-2-yl)-5H,6H,7H,8H-imidazo[1,5-a]pyridin-6-yl]phenyl]-5-fluoro-2-methylpyridine-3-sulfonamide], for which the IC50 is under 50 nM.

In turn, `COc1ncc(F)cc1S(=O)(=O)Nc1ccc(F)c([C@H]2CCc3c(-c4ncc[nH]4)ncn3C2)c1F` [Compound 81-1, N-[2,4-difluoro-3-[(6R)-1-(1H-imidazol-2-yl)-5H,6H,7H,8H-imidazo[1,5-a]pyridin-6-yl]phenyl]-5-fluoro-2-methoxypyridine-3-sulfonamide] showed an IC50 of under 50 nM.

`COc1ncc(F)cc1S(=O)(=O)Nc1ccc(F)c([C@@H]2CCc3c(-c4ncc[nH]4)ncn3C2)c1F` [Compound 81-2, N-[2,4-difluoro-3-[(6S)-1-(1H-imidazol-2-yl)-5H,6H,7H,8H-imidazo[1,5-a]pyridin-6-yl]phenyl]-5-fluoro-2-methoxypyridine-3-sulfonamide]: the IC50 is under 50 nM.

The compound `Cc1ncc(Cl)cc1S(=O)(=O)Nc1ccc(F)c(-c2cn3cnc(-c4ncc[nH]4)c3cn2)c1F` [Compound 83, 5-chloro-N-[2,4-difluoro-3-[1-(1H-imidazol-2-yl)imidazo[1,5-a]pyrazin-6-yl]phenyl]-2-methylpyridine-3-sulfonamide] registered an IC50 of under 50 nM.

In turn, `COc1ncc(Cl)cc1S(=O)(=O)Nc1ccc(F)c(-c2ccc3c(-c4ncc[nH]4)ncn3n2)c1F` [Compound 85, 5-chloro-N-[2,4-difluoro-3-[5-(1H-imidazol-2-yl)imidazo[1,5-b]pyridazin-2-yl]phenyl]-2-methoxypyridine-3-sulfonamide] displayed an IC50 of under 50 nM.

For `COc1ncc(Cl)cc1S(=O)(=O)Nc1ccc(F)c(-c2ccc3c(-c4nnc(C5CC5)[nH]4)ncn3c2)c1F` [Compound 87, 5-chloro-N-[3-[1-(5-cyclopropyl-4H-1,2,4-triazol-3-yl)imidazo[1,5-a]pyridin-6-yl]-2,4-difluorophenyl]-2-methoxypyridine-3-sulfonamide], the IC50 is under 50 nM.

Consider `COc1ncc(Cl)cc1S(=O)(=O)Nc1ccc(F)c(-c2ccc3c(-c4nnc(C(C)C)[nH]4)ncn3c2)c1F` [Compound 88, 5-chloro-N-[2,4-difluoro-3-[1-(5-isopropyl-4H-1,2,4-triazol-3-yl)imidazo[1,5-a]pyridin-6-yl]phenyl]-2-methoxypyridine-3-sulfonamide], for which the IC50 is under 50 nM.

For the origin of these results see US20240083897A1, “GCN2 MODULATING COMPOUNDS AND USES THEREOF” (HiberCell, Inc., priority 2021, published 2024).
